IC50 data for 18 molecules are collected here from patent US11827627B2, “N-(hydroxyalkyl (hetero)aryl) tetrahydrofuran carboxamides as modulators of sodium channels” (VERTEX PHARMACEUTICALS INCORPORATED, priority 2021, dated 2023).

human NaV 1.8, sequence (Q9Y5Y9 126-1722 limits assumed): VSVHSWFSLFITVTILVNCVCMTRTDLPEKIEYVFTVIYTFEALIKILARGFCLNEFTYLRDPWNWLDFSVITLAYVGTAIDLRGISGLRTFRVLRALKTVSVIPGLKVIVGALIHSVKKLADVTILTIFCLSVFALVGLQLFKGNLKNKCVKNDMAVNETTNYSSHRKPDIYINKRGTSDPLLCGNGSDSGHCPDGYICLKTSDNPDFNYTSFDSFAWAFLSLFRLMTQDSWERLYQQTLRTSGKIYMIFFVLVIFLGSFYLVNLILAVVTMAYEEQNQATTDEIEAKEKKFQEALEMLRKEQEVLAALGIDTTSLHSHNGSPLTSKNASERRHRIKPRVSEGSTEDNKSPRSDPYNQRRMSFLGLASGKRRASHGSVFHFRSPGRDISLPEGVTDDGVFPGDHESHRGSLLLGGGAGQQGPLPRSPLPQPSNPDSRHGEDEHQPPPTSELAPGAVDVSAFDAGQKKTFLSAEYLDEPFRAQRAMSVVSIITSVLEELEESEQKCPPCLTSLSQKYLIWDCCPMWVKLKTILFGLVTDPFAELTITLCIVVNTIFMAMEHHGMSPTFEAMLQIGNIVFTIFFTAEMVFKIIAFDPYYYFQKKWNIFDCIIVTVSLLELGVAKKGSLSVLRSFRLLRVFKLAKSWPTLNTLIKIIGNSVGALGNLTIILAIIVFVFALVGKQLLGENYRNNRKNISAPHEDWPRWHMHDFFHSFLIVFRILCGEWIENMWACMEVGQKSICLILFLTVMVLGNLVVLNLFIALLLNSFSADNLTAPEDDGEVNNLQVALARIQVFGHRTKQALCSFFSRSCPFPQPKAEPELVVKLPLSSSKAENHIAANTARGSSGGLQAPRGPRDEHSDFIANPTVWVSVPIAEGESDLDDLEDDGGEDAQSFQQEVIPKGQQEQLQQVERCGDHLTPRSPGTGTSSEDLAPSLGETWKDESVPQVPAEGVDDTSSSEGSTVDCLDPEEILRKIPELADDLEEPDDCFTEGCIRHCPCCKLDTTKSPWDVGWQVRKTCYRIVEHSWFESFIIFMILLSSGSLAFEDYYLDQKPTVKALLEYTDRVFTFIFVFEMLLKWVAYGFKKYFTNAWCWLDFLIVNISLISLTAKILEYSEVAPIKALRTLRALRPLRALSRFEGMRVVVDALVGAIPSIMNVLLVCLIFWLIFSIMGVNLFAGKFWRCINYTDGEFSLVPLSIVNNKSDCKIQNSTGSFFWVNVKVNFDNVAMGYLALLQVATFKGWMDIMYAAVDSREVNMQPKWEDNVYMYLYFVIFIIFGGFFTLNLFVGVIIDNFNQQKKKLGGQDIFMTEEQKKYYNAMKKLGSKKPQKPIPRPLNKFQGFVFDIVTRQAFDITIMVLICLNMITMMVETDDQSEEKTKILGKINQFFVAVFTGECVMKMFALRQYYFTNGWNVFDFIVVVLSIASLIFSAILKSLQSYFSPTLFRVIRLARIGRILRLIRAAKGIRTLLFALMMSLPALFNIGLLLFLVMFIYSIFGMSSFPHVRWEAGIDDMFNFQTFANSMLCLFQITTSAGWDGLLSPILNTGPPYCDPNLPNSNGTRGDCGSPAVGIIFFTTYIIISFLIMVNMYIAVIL

This assay addresses human NaV 1.8 (Homo sapiens, UniProt Q9Y5Y9). Description: E-VIPR assay detecting and measuring NaV inhibition properties. Type of assay: cell-based. Particulars: HEK cells expressing a truncated form of human NaV 1.8; electrical stimulation, membrane potential FRET dyes. The source says: E-VIPR Assay Detecting and Measuring NaV Inhibition Properties
Sodium ion channels are voltage-dependent proteins that can be activated by inducing membrane voltage changes by applying electric fields. The electrical stimulation instrument and methods of use, referred to as E-VIPR, are described in International Publication No. WO 2002/008748 A3 and C.-J. Huang et al. Characterization of voltage-gated sodium channel blockers by electrical stimulation and fluorescence detection of membrane potential, 24 Nature Biotech. 439-46 (2006), both of which are incorporated by reference in their entirety. The instrument comprises a microtiter plate handler, an optical system for exciting the coumarin dye while simultaneously recording the coumarin and oxonol emissions, a waveform generator, a current- or voltage-controlled amplifier, and parallel electrode pairs that are inserted into assay plate wells. Under integrated computer control, this instrument passes user-programmed electrical stimulus protocols to cells within the wells of the microtiter plate.
16-20 hours prior to running the assay on E-VIPR, HEK cells expressing a truncated form of human NaV 1.8 with full channel activity were seeded into microtiter 384-well plates, pre-coated with matrigel, at a density of 25,000 cells per well. 2.5-5% KIR2.1 Bacmam virus was added to the final cell suspension before seeding into cell plates. HEK cells were grown in Dulbecco's Modified Eagle's Medium (DMEM) supplemented with 10% FBS (Fetal Bovine Serum, qualified; Sigma #F4135), 1% NEAA (Non-Essential Amino Acids, Gibco #11140), 1% HEPES (Gibco #15630), 1% Pen-Strep (Penicillin-Streptomycin; Gibco #15140) and 5 μg/ml Blasticidin (Gibco #R210-01). Cells were expanded in vented cap cell culture flasks, with 90-95% humidity and 5% CO2.
Reagents and Stock Solutions:
100 mg/mL Pluronic F-127 (Sigma #P2443), in dry DMSO
Compound Plates: Corning 384-well Polypropylene Round Bottom #3656
Cell Plates: 384-well tissue culture treated plates (Greiner #781091-2B)
2.5-5% KIR 2.1 Bacmam virus (produced in-house), prepared as described in Section 3.3 of J. A. Fornwald et al., Gene Expression in Mammalian Cells Using BacMam, a Modified Baculovirus System, 1350 Methods in Molecular Biology 95-116 (2016), the entire contents of which are incorporated by reference. The concentration used can be dependent on viral titer of each batch.
5 mM DiSBAC6(3), a voltage sensitive oxonol acceptor (CAS number 169211-44-3; 5-[3-(1,3-dihexylhexahydro-4,6-dioxo-2-thioxo-5-pyrimidinyl)-2-propen-1-ylidene]-1,3-dihexyldihydro-2-thioxo-4,6(1H,5H)-pyrimidinedione), in dry DMSO. The preparation of DiSBAC6(3) is analogous to that of DiSBAC4(3) as described in Voltage Sensing by Fluorescence Resonance Energy Transfer in Single Cells, Gonzalez, J. E. and Tsien, R. Y. (1995) Biophys. J. 69, 1272-1280.
5 mM CC2-DMPE, a commercially available membrane-bound coumarin phospholipid FRET donor (ThermoFisher Scientific catalog number K1017, CAS number 393782-57-5; tetradecanoic acid, 1,1′-[(1R)-1-[8-(6-chloro-7-hydroxy-2-oxo-2H-1-benzopyran-3-yl)-3-hydroxy-3-oxido-8-oxo-2,4-dioxa-7-aza-3-phosphaoct-1-yl]-1,2-ethanediyl]ester) was prepared in dry DMSO. See also, Improved indicators of cell membrane potential that use fluorescence resonance energy transfer, Gonzalez, J. E. and Tsien, R. Y. (1997) Chem. Biol. 4, 269-277.
Voltage Assay Background Suppression Compound (VABSC-1) is prepared in H2O (89-363 mM, range used to maintain solubility)
Human Serum (HS, Millipore #S1P1-01KL, or Sigma SLBR5469V and SLBR5470V as a 50%/50% mixture, for 25% assay final concentration)
Bath 1 Buffer: • Sodium Chloride 160 mM (9.35 g/L), Potassium Chloride, 4.5 mM (0.335 g/L), Glucose 10 mM (1.8 g/L), Magnesium Chloride (Anhydrous) 1 mM (0.095 g/L), Calcium Chloride 2 mM (0.222 g/L), HEPES 10 mM (2.38 g/L) in water. […]
On to `CCOc1c([C@H]2C[C@@](C)(C(F)(F)F)O[C@@H]2C(=O)Nc2ccc([C@H](O)CO)nc2)ccc(F)c1F` (single isomer, unassigned) [Compound 32, rel-(2S,3R,5S)-N-(6-((S*)-1,2-dihydroxyethyl)pyridin-3-yl)-3-(2-ethoxy-3,4-difluorophenyl)-5-methyl-5-(trifluoromethyl)tetrahydrofuran-2-carboxamide], for which the IC50 (as a rule, the midpoint of a concentration-inhibition curve) is ≥ 1 µM.
Regarding `CCOc1c([C@@H]2C[C@](C)(C(F)(F)F)O[C@H]2C(=O)Nc2ccc([C@H](O)CO)nc2)ccc(F)c1F` (single isomer, unassigned) [Compound 33, rel-(2R,3S,5R)-N-(6-((S*)-1,2-dihydroxyethyl)pyridin-3-yl)-3-(2-ethoxy-3,4-difluorophenyl)-5-methyl-5-(trifluoromethyl)tetrahydrofuran-2-carboxamide], the IC50 fell in the range of 0.1 to 1 µM.
Next, `CCOc1c([C@H]2C[C@@](C)(C(F)(F)F)O[C@@H]2C(=O)Nc2ccc([C@@H](O)CO)nc2)ccc(F)c1F` (single isomer, unassigned) [Compound 34, rel-(2S,3R,5S)-N-(6-((R*)-1,2-dihydroxyethyl)pyridin-3-yl)-3-(2-ethoxy-3,4-difluorophenyl)-5-methyl-5-(trifluoromethyl)tetrahydrofuran-2-carboxamide]: ≥ 1 µM.
Take `CCOc1c([C@@H]2C[C@](C)(C(F)(F)F)O[C@H]2C(=O)Nc2ccc([C@@H](O)CO)nc2)ccc(F)c1F` (single isomer, unassigned) [Compound 35, rel-(2R,3S,5R)-N-(6-((R*)-1,2-dihydroxyethyl)pyridin-3-yl)-3-(2-ethoxy-3,4-difluorophenyl)-5-methyl-5-(trifluoromethyl)tetrahydrofuran-2-carboxamide]: the half-maximal inhibitory concentration (IC50) is 0.01 to 0.1 µM.
Consider `CCOc1c([C@H]2[C@H](C(=O)Nc3ccc([C@@H](O)CO)nc3)O[C@@](C)(C(F)(F)F)[C@H]2C)ccc(F)c1C` (single isomer, unassigned) [Compound 40, rel-(2R,3S,4S,5R)—N-(6-((R*)-1,2-dihydroxyethyl)pyridin-3-yl)-3-(2-ethoxy-4-fluoro-3-methylphenyl)-4,5-dimethyl-5-(trifluoromethyl)tetrahydrofuran-2-carboxamide], for which the IC50 was < 0.01 µM.
Consider `CCOc1c([C@@H]2[C@@H](C(=O)Nc3ccc([C@@H](O)CO)nc3)O[C@](C)(C(F)(F)F)[C@@H]2C)ccc(F)c1C` (single isomer, unassigned) [Compound 41, rel-(2S,3R,4R,5S)—N-(6-((R*)-1,2-dihydroxyethyl)pyridin-3-yl)-3-(2-ethoxy-4-fluoro-3-methylphenyl)-4,5-dimethyl-5-(trifluoromethyl)tetrahydrofuran-2-carboxamide], for which the 50% inhibitory concentration (IC50) was ≥ 1 µM.
To `CCOc1c([C@H]2[C@H](C(=O)Nc3ccc([C@H](O)CO)nc3)O[C@@](C)(C(F)(F)F)[C@H]2C)ccc(F)c1C` (single isomer, unassigned) [Compound 42, rel-(2R,3S,4S,5R)-N-(6-((S*)-1,2-dihydroxyethyl)pyridine-3-yl)-3-(2-ethoxy-4-fluoro-3-methylphenyl)-4,5-dimethyl-5-(trifluoromethyl)tetrahydrofuran-2-carboxamide] belongs < 0.01 µM; to `CCOc1c([C@@H]2[C@@H](C(=O)Nc3ccc([C@H](O)CO)nc3)O[C@](C)(C(F)(F)F)[C@@H]2C)ccc(F)c1C` (single isomer, unassigned) [Compound 43, rel-(2S,3R,4R,5S)-N-(6-((S*)-1,2-dihydroxyethyl)pyridin-3-yl)-3-(2-ethoxy-4-fluoro-3-methylphenyl)-4,5-dimethyl-5-(trifluoromethyl)tetrahydrofuran-2-carboxamide], ≥ 1 µM; to `COc1c(C2C(C(=O)Nc3ccc(C(O)CO)nc3)OC(C)(C(F)(F)F)C2C)ccc(F)c1C` (single isomer, unassigned) [Compound 44, rel-(2S,3R,4R,5S)-N-(6-((S*)-1,2-dihydroxyethyl)138yridine-3-yl)-3-(4-fluoro-2-methoxy-3-methylphenyl)-4,5-dimethyl-5-(trifluoromethyl)tetrahydrofuran-2-carboxamide], ≥ 1 µM.
`COc1c([C@H]2[C@H](C(=O)Nc3ccc([C@H](O)CO)nc3)O[C@@](C)(C(F)(F)F)[C@H]2C)ccc(F)c1C` (single isomer, unassigned) [Compound 45, rel-(2R,3S,4S,5R)-N-(6-((S*)-1,2-dihydroxyethyl)pyridin-3-yl)-3-(4-fluoro-2-methoxy-3-methylphenyl)-4,5-dimethyl-5-(trifluoromethyl)tetrahydrofuran-2-carboxamide] had an IC50 of 0.01 to 0.1 µM.
`COc1c([C@@H]2[C@@H](C(=O)Nc3ccc([C@@H](O)CO)nc3)O[C@](C)(C(F)(F)F)[C@@H]2C)ccc(F)c1C` (single isomer, unassigned) [Compound 46, rel-(2S,3R,4R,5S)-N-(6-((R*)-1,2-dihydroxyethyl)pyridin-3-yl)-3-(4-fluoro-2-methoxy-3-methylphenyl)-4,5-dimethyl-5-(trifluoromethyl)tetrahydrofuran-2-carboxamide]: the IC50 is ≥ 1 µM.
On to `COc1c([C@H]2[C@H](C(=O)Nc3ccc([C@@H](O)CO)nc3)O[C@@](C)(C(F)(F)F)[C@H]2C)ccc(F)c1C` (single isomer, unassigned) [Compound 47, rel-(2R,3S,4S,5R)-N-(6-((R*)-1,2-dihydroxyethyl)pyridin-3-yl)-3-(4-fluoro-2-methoxy-3-methylphenyl)-4,5-dimethyl-5-(trifluoromethyl)tetrahydrofuran-2-carboxamide], for which the IC50 is < 0.01 µM.
For `COc1c([C@@H]2[C@@H](C(=O)Nc3ccc([C@H](O)CO)nc3)O[C@](C)(C(F)(F)F)[C@@H]2C)ccc(F)c1C(F)F` (single isomer, unassigned) [Compound 48, rel-(2S,3R,4R,5S)-3-(3-(difluoromethyl)-4-fluoro-2-methoxyphenyl)-N-(6-((S*)-1,2-dihydroxyethyl)pyridin-3-yl)-4,5-dimethyl-5-(trifluoromethyl)tetrahydrofuran-2-carboxamide], the IC50 is ≥ 1 µM.
For `COc1c([C@H]2[C@H](C(=O)Nc3ccc([C@H](O)CO)nc3)O[C@@](C)(C(F)(F)F)[C@H]2C)ccc(F)c1C(F)F` (single isomer, unassigned) [Compound 49, rel-(2R,3S,4S,5R)-3-(3-(difluoromethyl)-4-fluoro-2-methoxyphenyl)-N-(6-((S*)-1,2-dihydroxyethyl)pyridin-3-yl)-4,5-dimethyl-5-(trifluoromethyl)tetrahydrofuran-2-carboxamide], the IC50 is < 0.01 µM.
Consider `COc1c(C2C(C(=O)Nc3ccc(C(O)CO)nc3)OC(C)(C(F)(F)F)C2C)ccc(F)c1C(F)F` (single isomer, unassigned) [Compound 50], for which the IC50 is ≥ 1 µM.
On to `COc1c(C2C(C(=O)Nc3ccc(C(O)CO)nc3)OC(C)(C(F)(F)F)C2C)ccc(F)c1C(F)F` (single isomer, unassigned) [Compound 51], for which the IC50 was < 0.01 µM.
Next, `COc1c(C2C(C(=O)Nc3ccc(CO)nc3)OC(C)(C(F)(F)F)C2C)ccc(F)c1C(F)F` (single isomer, unassigned) [Compound 52]: ≥ 1 µM; `COc1c(C2C(C(=O)Nc3ccc(CO)nc3)OC(C)(C(F)(F)F)C2C)ccc(F)c1C(F)F` (single isomer, unassigned) [Compound 53]: < 0.01 µM.
